Experimental data reported in ChEMBL document CHEMBL1152717, “Discovery of mu-opioid selective ligands derived from 1-aminotetralin scaffolds made via metal-catalyzed ring-opening reactions” (Bioorg Med Chem Lett, 2009).

Assays:
Mu-type opioid receptor [1] = target: T1, Mu-type opioid receptor (Homo sapiens, UniProt P35372); test: Displacement of [125I]FK33824 from human cloned mu opioid receptor
[2] = target: Delta-type opioid receptor (Homo sapiens, UniProt P41143); test: Displacement of [125I]deltorphin 2 from human cloned delta opioid receptor
Sequence of Delta-type opioid receptor (P41143 whole entry): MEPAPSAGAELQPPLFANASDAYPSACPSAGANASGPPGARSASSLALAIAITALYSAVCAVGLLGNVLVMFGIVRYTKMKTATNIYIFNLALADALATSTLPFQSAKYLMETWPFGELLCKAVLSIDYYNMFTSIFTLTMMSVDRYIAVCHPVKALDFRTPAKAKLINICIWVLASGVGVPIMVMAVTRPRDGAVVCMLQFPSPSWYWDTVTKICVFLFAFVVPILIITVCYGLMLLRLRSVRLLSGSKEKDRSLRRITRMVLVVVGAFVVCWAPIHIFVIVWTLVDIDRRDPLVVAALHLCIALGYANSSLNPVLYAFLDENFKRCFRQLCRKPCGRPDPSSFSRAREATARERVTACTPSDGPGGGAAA

[3] = target: Kappa-type opioid receptor (Homo sapiens, UniProt P41145); test: Displacement of [125I]U69593 from human cloned kappa opioid receptor
Sequence of Kappa-type opioid receptor (P41145 whole entry): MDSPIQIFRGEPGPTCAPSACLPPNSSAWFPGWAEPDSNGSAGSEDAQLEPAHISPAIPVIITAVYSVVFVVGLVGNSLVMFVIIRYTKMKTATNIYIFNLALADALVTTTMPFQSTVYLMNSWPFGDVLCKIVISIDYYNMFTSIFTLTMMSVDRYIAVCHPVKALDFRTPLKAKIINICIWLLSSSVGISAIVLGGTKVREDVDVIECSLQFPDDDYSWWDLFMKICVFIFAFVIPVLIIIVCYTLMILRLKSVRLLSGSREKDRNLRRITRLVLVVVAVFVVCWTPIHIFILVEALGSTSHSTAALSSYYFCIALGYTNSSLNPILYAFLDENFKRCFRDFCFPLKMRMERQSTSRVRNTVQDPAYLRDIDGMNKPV

Mu-type opioid receptor [4] = target: T1, Mu-type opioid receptor; settings: at 100 µM
Description: Intrinsic activity at human cloned mu opioid receptor at 100 uM by [35S]GTPgammaS binding assay relative to DAMGO

Mu-type opioid receptor [5] = target: T1, Mu-type opioid receptor; test: Agonist activity at human cloned mu opioid receptor by [35S]GTPgammaS binding assay; assay type: functional

T1 sequence (P35372 whole entry): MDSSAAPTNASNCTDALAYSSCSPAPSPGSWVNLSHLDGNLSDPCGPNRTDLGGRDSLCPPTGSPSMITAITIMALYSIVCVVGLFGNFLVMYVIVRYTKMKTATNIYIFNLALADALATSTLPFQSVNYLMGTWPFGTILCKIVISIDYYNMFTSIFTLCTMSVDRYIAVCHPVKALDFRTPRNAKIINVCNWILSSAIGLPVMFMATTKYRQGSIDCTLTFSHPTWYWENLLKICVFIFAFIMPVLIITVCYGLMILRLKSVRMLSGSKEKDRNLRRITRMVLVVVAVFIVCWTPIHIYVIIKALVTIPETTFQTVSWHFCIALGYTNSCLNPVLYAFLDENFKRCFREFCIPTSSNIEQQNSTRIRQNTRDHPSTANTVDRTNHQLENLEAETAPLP

Work on `COCCN(C(=O)c1sccc1Cl)[C@@H]1c2ccccc2C=C[C@H]1N1CCN(c2ccccc2)CC1` yielded an IC50 (Mu-type opioid receptor [1]) of 0.058 µM, an IC50 [2] of 1.24 µM and an IC50 [3] of 1.32 µM.
Work on `COCCN(C(=O)c1sccc1Cl)[C@H]1c2ccccc2C=C[C@@H]1N1CCN(c2ccccc2)CC1` yielded an IC50 (Mu-type opioid receptor [1]) of 2.8 µM.
`COCCN[C@@H]1c2ccccc2CC[C@H]1c1ccsc1` was tested, and the IC50 [2] was 3.8 µM and the IC50 [3] was 0.707 µM.
Work on `C[C@@]12CCCCC[C@@H](Cc3ccc(O)cc31)[C@@H]2N` yielded an Emax (Mu-type opioid receptor [4]) of 6%.
`COCCNC1c2ccccc2CCC1c1ccsc1` (racemic) showed an IC50 [3] of 2.21 µM.
`COCCN(C(=O)COCc1ccccc1)C1c2ccccc2C=CC1N1CCN(c2ccccc2)CC1` (racemic) showed an IC50 (Mu-type opioid receptor [1]) of 0.211 µM, an IC50 [2] of 3.89 µM and an IC50 [3] of over 10 µM. It also gave an EC50 (Mu-type opioid receptor [5]) of over 90 µM and an Emax (Mu-type opioid receptor [4]) of 10%.
Work on `COCCN(C(=O)Cc1cccc(OC)c1)C1c2ccccc2C=CC1N1CCN(c2ccccc2)CC1` (racemic) yielded an IC50 (Mu-type opioid receptor [1]) of 0.151 µM, an IC50 [2] of 1.47 µM and an IC50 [3] of over 10 µM. It also gave an EC50 (Mu-type opioid receptor [5]) of over 90 µM and an Emax (Mu-type opioid receptor [4]) of 10%.
Work on `COCCN(C(=O)Cc1ccc(Cl)cc1)C1c2ccccc2C=CC1N1CCN(c2ccccc2)CC1` (racemic) yielded an IC50 (Mu-type opioid receptor [1]) of 0.181 µM, an IC50 [2] of 1.95 µM and an IC50 [3] of 7.99 µM. The EC50 (Mu-type opioid receptor [5]) was over 90 µM and the Emax (Mu-type opioid receptor [4]) was 0%.
Work on `COCCN(C(=O)c1sccc1Cl)C1c2ccccc2C=CC1N1CCN(c2ccccc2)CC1` (racemic) yielded an IC50 (Mu-type opioid receptor [1]) of 0.1 µM, an IC50 [2] of 2.29 µM and an IC50 [3] of 7.14 µM. The EC50 (Mu-type opioid receptor [5]) was over 90 µM and the Emax (Mu-type opioid receptor [4]) was 0%.
`COCCN(C(=O)c1ccc(Cl)c(Cl)c1)C1c2ccccc2C=CC1N1CCN(c2ccccc2)CC1` (racemic) gave an IC50 (Mu-type opioid receptor [1]) of 0.443 µM, an IC50 [2] of 3.62 µM and an IC50 [3] of over 10 µM. The EC50 (Mu-type opioid receptor [5]) was over 90 µM and the Emax (Mu-type opioid receptor [4]) was 60%.
Work on `COCCN(C(=O)c1cc(C)nn1C)C1c2ccccc2CCC1c1ccsc1` (racemic) yielded an IC50 (Mu-type opioid receptor [1]) of 4.86 µM, an IC50 [2] of 1.27 µM and an IC50 [3] of over 10 µM.
